According to ChEMBL document CHEMBL5244272 (Eur J Med Chem, 2021):
Converted amounts (≈) assume the structure as drawn.

What was measured:
Plasmodium berghei [1] = test: Antimalarial activity against Plasmodium berghei infected in mouse; type: functional; details: Plasmodium berghei
Plasmodium falciparum [2] = test: Antimalarial activity against Plasmodium falciparum 3D7; type: functional, organism-based
Plasmodium falciparum [3] = test: Antimalarial activity against ART-sensitive Plasmodium falciparum W2; type: functional, organism-based
Plasmodium falciparum [4] = test: Antimalarial activity against ART-sensitive Plasmodium falciparum NF54; type: functional, organism-based
Plasmodium falciparum [5] = test: Antimalarial activity against ART-resistant Plasmodium falciparum Dd2 harboring R539T mutant; type: functional, organism-based
Plasmodium falciparum [6] = test: Antimalarial activity against ART-resistant Plasmodium falciparum NF54 harboring […] mutant; type: functional, organism-based
Plasmodium falciparum [7] = test: Antimalarial activity against Plasmodium falciparum Dd2; type: functional, organism-based
Plasmodium falciparum [8] = test: Antimalarial activity against Plasmodium falciparum HB3; type: functional, organism-based
Plasmodium falciparum [9] = test: Antimalarial activity against Plasmodium falciparum SGE2; type: functional, organism-based
Plasmodium falciparum [10] = test: Antimalarial activity against Plasmodium falciparum IPC5202; type: functional, organism-based
Plasmodium falciparum [11] = test: Antimalarial activity against Plasmodium falciparum IPC4912; type: functional, organism-based
Plasmodium falciparum [12] = test: Antimalarial activity against Plasmodium falciparum IV-V gametocytes; type: functional, organism-based
Cytomegalovirus = test: Antiviral activity against HCMV; type: functional, organism-based; details: Human betaherpesvirus 5
Plasmodium yoelii [13] = test: Antimalarial activity against Plasmodium yoelii BY265 infected in mouse assessed reduction in parasitemia at 4.4 to […], iv administered for 4 consecutive days; type: functional; design: scale not given: the % may be the effect or the level left
Plasmodium falciparum [14] = test: Antimalarial activity against Plasmodium falciparum K1; type: functional, organism-based
Plasmodium chabaudi = test: Antimalarial activity against Plasmodium chabaudi infected in mouse; type: functional
Plasmodium falciparum [15] = test: Potency index, ratio of artesunate IC50 to test compound IC50 for chloroquine resistant Plasmodium falciparum; type: functional
Plasmodium falciparum [16] = test: Antimalarial activity against Plasmodium falciparum; type: functional, organism-based
Plasmodium berghei [17] = test: Antimalarial activity against Plasmodium berghei ANKA infected in mouse at 30 mg/kg, po; type: functional
Plasmodium falciparum [18] = test: Antimalarial activity against Plasmodium falciparum NF54; type: functional, organism-based
Plasmodium berghei [19] = test: Antimalarial activity against Plasmodium berghei infected in mouse assessed reduction in parasitemia measured after 4 days; type: functional; design: scale not given: the % may be the effect or the level left; details: time 4 day
Plasmodium berghei [20] = test: Antimalarial activity against Plasmodium berghei infected in mouse assessed increase in survival time; type: functional
Plasmodium falciparum [21] = test: Antimalarial activity against Plasmodium falciparum RKL2; type: functional, organism-based
Plasmodium yoelii [22] = test: Antimalarial activity against multidrug resistant Plasmodium yoelii infected in swiss mouse assessed as reduction in parasitaemia at 96 mg/kg, po; type: functional; design: scale not given: the % may be the effect or the level left
Plasmodium yoelii [23] = test: Antimalarial activity against multidrug resistant Plasmodium yoelii infected in swiss mouse assessed as reduction in parasitaemia at 48 mg/kg, po measured on day 4; type: functional; design: scale not given: the % may be the effect or the level left; details: time 4 day
Plasmodium yoelii [24] = test: Antimalarial activity against multidrug resistant Plasmodium yoelii infected in swiss mouse assessed as increase in survival at 48 mg/kg, po after 28 days; type: functional; details: time 28 day
Plasmodium falciparum [25] = test: Antimalarial activity against Plasmodium falciparum INDO; type: functional, organism-based
Plasmodium falciparum [26] = test: Potency index, ratio of chloroquine IC50 to test compound IC50 for Plasmodium falciparum INDO; type: functional
[27] = Cytotoxicity against HEK293 cells; type: toxicity, cell-based; details: human
[28] = Selectivity index, ratio of IC50 for HEK293 cells to IC50 for Plasmodium falciparum INDO; type: toxicity; details: human, read-out: Ratio IC50
Plasmodium falciparum [29] = test: Antimalarial activity against Plasmodium falciparum W2; type: functional, organism-based
Plasmodium falciparum [30] = test: Antimalarial activity against late stage Plasmodium falciparum gametocytes; type: functional, organism-based
Plasmodium berghei [31] = test: Antimalarial activity against Plasmodium berghei infected in mouse at less than 10 mg/kg, po; type: functional
[32] = read-out: ED50 (the source's name)

C[C@H]1[C@@H](O)O[C@@H]2O[C@@]3(C)CC[C@H]4[C@H](C)CC[C@@H]1[C@@]24OO3 [ARTENIMOL]
ED50 (Plasmodium berghei [1]): 1.15 mg/kg
IC50 (Plasmodium falciparum [2]): 4.7 nM
IC50 (Plasmodium falciparum [3]): 1 nM
IC50 (Plasmodium falciparum [4]): 1.5 nM
IC50 (Plasmodium falciparum [5]): 1.4 nM
IC50 (Plasmodium falciparum [6]): 1.1 nM
IC50 (Plasmodium falciparum [7]): 4.2 nM
IC50 (Plasmodium falciparum [8]): 5 nM
IC50 (Plasmodium falciparum [9]): 9 nM
IC50 (Plasmodium falciparum [10]): 6.2 nM
IC50 (Plasmodium falciparum [11]): 3.7 nM
IC50 (Plasmodium falciparum [12]): 440 nM

C[C@H]1[C@H](OC(=O)CCC(=O)OCCOC(=O)CC(=O)OCCOC(=O)CCC(=O)O[C@@H]2O[C@@H]3O[C@]4(C)CC[C@H]5[C@H](C)CC[C@@H]([C@H]2C)[C@@]35OO4)O[C@@H]2O[C@]3(C)CC[C@H]4[C@H](C)CC[C@@H]1[C@@]24OO3
EC50 (Plasmodium falciparum [2]; read-out: EC50): 1.4 nM
EC50 (Cytomegalovirus): 0.57 nM

CCCCCCCCCCCCCC[N+](C)(C)CCOC(=O)c1ccc(COC2O[C@@H]3O[C@]4(C)CC[C@H]5[C@H](C)CC[C@@H]([C@H]2C)[C@@]35OO4)cc1.[Br-] (stereo partly drawn)
Activity (Plasmodium yoelii [13]): >50%

C[C@H]1[C@@H](CCc2ccc(C(=O)O)cc2)O[C@@H]2O[C@]3(C)CC[C@H]4[C@H](C)CC[C@@H]1[C@@]24OO3
EC50 (Plasmodium falciparum [14]; [32]): 0.6 ng/mL (≈ 1.44 nM)
EC50 (Plasmodium falciparum [2]; [32]): 1.1 ng/mL
Activity (Plasmodium chabaudi): 98.7%

C[C@H]1[C@H](CCCO)O[C@@H]2O[C@]3(C)CC[C@H]4[C@H](C)CC[C@@H]1[C@@]24OO3
Ratio IC50 (Plasmodium falciparum [15]): 5
IC50 (Plasmodium falciparum [16]): 0.23 ng/mL (≈ 0.705 nM)

O=C(CC1CCC2(CC1)OOC1(OO2)C2CC3CC(C2)CC1C3)NC1CC1 (stereo not drawn)
Activity (Plasmodium berghei [17]): 100%

Oc1ccc(C2CCC3(CC2)OOC2(OO3)C3CC4CC(C3)CC2C4)cc1CN1CCCC1 (stereo not drawn)
IC50 (Plasmodium falciparum [14]): 4.8 nM
IC50 (Plasmodium falciparum [18]): 4.8 nM
Activity (Plasmodium berghei [19]): >99.7%
Time (Plasmodium berghei [20]): 25 days

CC1(C)OOC(c2ccccc2)(c2ccccc2)OO1
IC50 (Plasmodium falciparum [21]): 3910 ng/mL (≈ 14300 nM)

C=C(c1ccc(-c2ccccc2)cc1)C1COC2(CCC(Nc3ccccc3)CC2)OO1 (stereo not drawn)
Activity (Plasmodium yoelii [22]): 100%
Activity (Plasmodium yoelii [23]): 100%
Activity (Plasmodium yoelii [24]): 60%

C=C(c1ccc2c(c1)CCCC2)C1COC2(CCCCC2)OO1 (stereo not drawn)
IC50 (Plasmodium falciparum [25]): 51 nM
Ratio IC50 (Plasmodium falciparum [26]): 11
CC50 [27]: 30100 nM
selectivity ratio [28]: 589

C[C@@H]1CC[C@H]2[C@@H](C)C(=O)N(S(=O)(=O)c3cccs3)[C@@H]3O[C@]4(C)CC[C@@H]1[C@@]23OO4
IC50 (Plasmodium falciparum [29]): 4.26 nM
IC50 (Plasmodium falciparum [14]): 6.27 nM
IC50 (Plasmodium falciparum [18]): 5.68 nM
IC50 (Plasmodium falciparum [30]): 8.6 nM

C[C@@H]1CC[C@H]2C(CN3CCN(CCO)CC3)=C(C(F)(F)F)O[C@@H]3O[C@]4(C)CC[C@@H]1[C@]32OO4
Activity (Plasmodium berghei [31]): 100%
